Test results reported in patent publication US20220298141A1, “ENZYME INHIBITORS” (KALVISTA PHARMACEUTICALS LIMITED, priority 2019, published 2022).

Assays:
Human FXIa = target: T1, Human FXIa (Homo sapiens, UniProt P03951); assay: Determination of FXIa inhibitory activity in vitro (fluorogenic substrate Z-Gly-Pro-Arg-AFC); type: biochemical; details: Selectivity, Human FXIa (Enzyme Research Laboratories), 25° C.
T1 construct: purchased Enzyme Research Laboratories

Human Factor XIIa = target: T2, Human Factor XIIa (Homo sapiens, UniProt P00748); assay: Determination of Factor XIIa inhibitory activity in vitro (fluorogenic substrate H-DPro-Phe-Arg-AFC); type: biochemical; details: Human Factor XIIa (Enzyme Research Laboratories), 25° C., read-out: Human FXIIa IC50
T2 construct: purchased Enzyme Research Laboratories
T2 sequence (P00748 373-615 limits assumed): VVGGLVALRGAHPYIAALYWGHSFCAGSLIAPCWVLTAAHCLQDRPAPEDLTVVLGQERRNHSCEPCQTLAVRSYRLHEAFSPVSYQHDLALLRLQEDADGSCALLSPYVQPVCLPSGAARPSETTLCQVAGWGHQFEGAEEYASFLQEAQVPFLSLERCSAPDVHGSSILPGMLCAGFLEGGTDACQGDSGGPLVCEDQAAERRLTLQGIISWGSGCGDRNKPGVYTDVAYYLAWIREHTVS
T2 sequence (P00748 20-372 partner limits assumed): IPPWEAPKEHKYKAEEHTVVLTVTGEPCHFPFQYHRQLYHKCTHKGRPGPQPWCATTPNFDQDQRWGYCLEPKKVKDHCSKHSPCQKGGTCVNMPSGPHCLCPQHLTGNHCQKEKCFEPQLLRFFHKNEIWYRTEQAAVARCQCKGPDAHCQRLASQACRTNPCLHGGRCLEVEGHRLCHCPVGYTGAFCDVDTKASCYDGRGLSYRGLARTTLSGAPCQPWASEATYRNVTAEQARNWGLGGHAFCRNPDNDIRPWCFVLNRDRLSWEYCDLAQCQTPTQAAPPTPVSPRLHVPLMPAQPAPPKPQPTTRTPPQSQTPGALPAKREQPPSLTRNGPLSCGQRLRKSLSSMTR
Procedure: Determination of the % Inhibition for FXIIa
Factor XIIa inhibitory activity in vitro was determined using standard published methods (see e.g. Shori et al., Biochem. Pharmacol., 1992, 43, 1209; Baeriswyl et al., ACS Chem. Biol., 2015, 10 (8) 1861; Bouckaert et al., European Journal of Medicinal Chemistry 110 (2016) 181). Human Factor XIIa (Enzyme Research Laboratories) was incubated at 25° C. with the fluorogenic substrate H-DPro-Phe-Arg-AFC and various concentrations of the test compound. Residual enzyme activity (initial rate of reaction) was determined by measuring the […] and the IC50 value for the test compound was determined.

T1 sequence (P03951 388-625 limits assumed): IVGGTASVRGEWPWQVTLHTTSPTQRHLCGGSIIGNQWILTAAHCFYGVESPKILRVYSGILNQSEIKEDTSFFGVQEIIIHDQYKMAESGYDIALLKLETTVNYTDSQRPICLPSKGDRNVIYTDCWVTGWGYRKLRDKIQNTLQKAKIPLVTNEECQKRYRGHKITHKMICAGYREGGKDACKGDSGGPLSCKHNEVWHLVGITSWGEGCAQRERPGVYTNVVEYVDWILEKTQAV
T1 sequence (P03951 19-387 partner limits assumed): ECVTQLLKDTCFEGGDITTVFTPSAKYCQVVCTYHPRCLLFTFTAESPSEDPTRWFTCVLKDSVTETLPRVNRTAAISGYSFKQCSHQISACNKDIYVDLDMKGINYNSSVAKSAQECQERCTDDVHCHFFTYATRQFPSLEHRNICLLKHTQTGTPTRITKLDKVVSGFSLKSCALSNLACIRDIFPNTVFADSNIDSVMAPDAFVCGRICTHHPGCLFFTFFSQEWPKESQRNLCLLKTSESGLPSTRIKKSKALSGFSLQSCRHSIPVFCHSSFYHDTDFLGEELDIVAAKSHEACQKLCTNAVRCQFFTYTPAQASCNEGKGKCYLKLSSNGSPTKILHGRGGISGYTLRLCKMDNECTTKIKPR

IC50 (Human FXIa) [µM]	IC50 (Human Factor XIIa) [µM]	SMILES
> 40	3 to 10	Nc1nccc2cc(CNC(=O)c3cc(Cl)cnc3NCc3ccccn3)ccc12 [Example 1.43]
> 40	10 to 40	Nc1nccc2cc(CNC(=O)c3cc(Cl)cnc3Nc3ccc(N4CCOCC4)cc3)ccc12 [Example 1.44]
> 40	10 to 40	Nc1nccc2cc(CNC(=O)c3cc(Cl)cnc3NCC(=O)N3CCOCC3)ccc12 [Example 1.45]
> 40	10 to 40	Nc1nccc2cc(CNC(=O)c3cc(Cl)cnc3NCC(=O)NC3CCCC3)ccc12 [Example 1.46]
> 40	1 to 3	CN1C(C)(C)CC(Nc2ncc(Cl)cc2C(=O)NCc2ccc3c(N)nccc3c2)CC1(C)C [Example 1.47]
> 40	1 to 3	CN1CCN(c2cc(CNc3ncc(Cl)cc3C(=O)NCc3ccc4c(N)nccc4c3)ccn2)CC1 [Example 1.48]
> 40	0.3 to 1	CC(C)N1CCC(CNc2ncc(Cl)cc2C(=O)NCc2ccc3c(N)nccc3c2)CC1 [Example 1.49]
> 40	0.3 to 1	Nc1nccc2cc(CNC(=O)c3cc(Cl)cnc3NCC3CCN(C4CC4)CC3)ccc12 [Example 1.50, N-((1-aminoisoquinolin-6-yl)methyl)-5-chloro-2-(((1-cyclopropylpiperidin-4-yl)methyl)amino)nicotinamide]
> 40	< 0.3	CCN1CCC(CNc2ncc(Cl)cc2C(=O)NCc2ccc3c(N)nccc3c2)CC1 [Example 1.51, N-((1-aminoisoquinolin-6-yl)methyl)-5-chloro-2-(((1-ethylpiperidin-4-yl)methyl)amino)nicotinamide]
> 40	0.3 to 1	Nc1nccc2cc(CNC(=O)c3cc(Cl)cnc3NCC3CCN(C4CCCC4)CC3)ccc12 [Example 1.53]
> 40	0.3 to 1	COCCN1CCC(CNc2ncc(Cl)cc2C(=O)NCc2ccc3c(N)nccc3c2)CC1 [Example 1.54, N-((1-aminoisoquinolin-6-yl)methyl)-5-chloro-2-(((1-(2-methoxyethyl)piperidin-4-yl)methyl)amino)nicotinamide]
> 40	0.3 to 1	CC(C)CN1CCC(CNc2ncc(Cl)cc2C(=O)NCc2ccc3c(N)nccc3c2)CC1 [Example 1.55]
> 40	0.3 to 1	Nc1nccc2cc(CNC(=O)c3cc(Cl)cnc3NCC3CCN(CC4CC4)CC3)ccc12 [Example 1.56]
> 40	3 to 10	Nc1nccc2cc(CNC(=O)c3cc(Cl)cnc3NCC3CCN(CC(F)(F)F)CC3)ccc12 [Example 1.57]
> 40	1 to 3	Nc1nccc2cc(CNC(=O)c3cc(Cl)cnc3NCC3CCN(C4CCOCC4)CC3)ccc12 [Example 1.58]
> 40	0.3 to 1	Nc1nccc2cc(CNC(=O)c3cc(Cl)cnc3NCC3CCn4ccnc4C3)ccc12 (centres unmarked) [Example 1.59, N-((1-aminoisoquinolin-6-yl)methyl)-5-chloro-2-(((5,6,7,8-tetrahydroimidazo[1,2-a]pyridin-7-yl)methyl)amino)nicotinamide]
> 40	1 to 3	CN1CCC(Nc2ncc(Cl)cc2C(=O)NCc2ccc3c(N)nccc3c2)CC1 [Example 1.60]
> 40	3 to 10	CC(=O)N1CCC(CNc2ncc(Cl)cc2C(=O)NCc2ccc3c(N)nccc3c2)CC1 [Example 1.61]
> 40	3 to 10	CS(=O)(=O)N1CCC(CNc2ncc(Cl)cc2C(=O)NCc2ccc3c(N)nccc3c2)CC1 [Example 1.62]
> 40	0.3 to 1	Nc1nccc2cc(CNC(=O)c3cc(Cl)cnc3NCC3CCN(Cc4cccnc4)CC3)ccc12 [Example 1.63, N-[(1-amino-6-isoquinolyl)methyl]-5-chloro-2-[[1-(3-pyridylmethyl)-4-piperidyl]methylamino]pyridine-3-carboxamide]
> 40	0.3 to 1	CC(C)N1CCCC(CNc2ncc(Cl)cc2C(=O)NCc2ccc3c(N)nccc3c2)C1 (centres unmarked) [Example 1.64, N-[(1-amino-6-isoquinolyl)methyl]5-chloro-2-[(1-isopropyl-3-piperidyl)methylamino]pyridine-3-carboxamide]
> 40	3 to 10	Nc1nccc2cc(CNC(=O)c3cc(Cl)cnc3NCC3CCN(Cc4cscn4)CC3)ccc12 [Example 1.65]

IC50 (Human FXIa) [µM]	IC50 (Human Factor XIIa) [µM]	SMILES
> 40	3 to 10	Nc1nccc2cc(CNC(=O)c3cc(Cl)cnc3NCC3CCN(Cc4nccs4)CC3)ccc12 [Example 1.66]
> 40	1 to 3	Cn1nccc1CN1CCC(CNc2ncc(Cl)cc2C(=O)NCc2ccc3c(N)nccc3c2)CC1 [Example 1.67]
> 40	0.3 to 1	Cn1cc(CN2CCC(CNc3ncc(Cl)cc3C(=O)NCc3ccc4c(N)nccc4c3)CC2)cn1 [Example 1.68]
> 40	3 to 10	CC(C)N1CCCC(C(=O)Nc2ncc(Cl)cc2C(=O)NCc2ccc3c(N)nccc3c2)C1 (centres unmarked) [Example 1.69]
> 40	10 to 40	Nc1nccc2cc(CNC(=O)c3cc(Cl)cnc3NC[C@@H]3CCC(=O)N3)ccc12 [Example 1.70]
> 40	0.3 to 1	CC(Nc1ncc(Cl)cc1C(=O)NCc1ccc2c(N)nccc2c1)C1CCN(C)CC1 (centres unmarked) [Example 1.71]
3.16	10 to 40	Nc1nccc2cc(CNC(=O)c3cc(Cl)cnc3NC[C@H]3CCC(=O)N3)ccc12 [Example 1.72, R—N-[(1-aminoisoquinoline-6-yl)methyl)-5-chloro-2-(((5-oxopyrrolidin-2-yl)methyl)amino)nicotinamide]
> 40	1 to 3	CN1CCC(CNc2ncccc2C(=O)NCc2ccc3c(N)nccc3c2)CC1 [Example 4.01, N-((1-aminoisoquinolin-6-yl)methyl)-2-(((1-methylpiperidin-4-yl)methyl)amino)nicotinamide]
> 40	0.3 to 1	Cc1cnc(NCC2CCN(C)CC2)c(C(=O)NCc2ccc3c(N)nccc3c2)c1 [Example 4.02]
	3 to 10	CN(C)CCCOc1cccc(CN(C)c2ncc(Cl)cc2C(=O)NCc2ccc3c(N)nccc3c2)c1 [Example 28.03, N-((1-aminoisoquinolin-6-yl)methyl)-5-chloro-2-((3-(3-(dimethylamino)propoxy)benzyl)(methyl)amino)nicotinamide]
	10 to 40	CN(c1ncc(Cl)cc1C(=O)NCc1ccc2c(N)nccc2c1)C1CCOCC1 [Example 28.04, N-((1-aminoisoquinolin-6-yl)methyl)-5-chloro-2-(methyl(tetra hydro-2H-pyran-4-yl)amino)nicotinamide]
	10 to 40	CN(c1ccccc1)c1ncc(Cl)cc1C(=O)NCc1ccc2c(N)nccc2c1 [Example 28.05, N-((1-aminoisoquinolin-6-yl)methyl)-5-chloro-2-(methyl(phenyl)amino)nicotinamide]
	10 to 40	CN(c1cccc(Cl)c1)c1ncc(Cl)cc1C(=O)NCc1ccc2c(N)nccc2c1 [Example 28.06]
	10 to 40	Nc1nccc2cc(CNC(=O)c3cncc(-c4ccccc4)c3)ccc12 [Example 29.01]
	3 to 10	Nc1nccc2cc(CNC(=O)c3cncc(-c4ccnn4Cc4ccccc4)c3)ccc12 [Example 29.03, N-((1-aminoisoquinolin-6-yl)methyl)-5-(1-benzyl-1H-pyrazol-5-yl)nicotinamide]
	10 to 40	Nc1nccc2cc(CNC(=O)c3cncc(CN4CCNCC4)c3)ccc12 [Example 29.04]
	3 to 10	Nc1nccc2cc(CNC(=O)c3cccc(CN4CCN(CC5CCCC5)CC4)c3)ccc12 [Example 29.09]
	3 to 10	CN1CCN(Cc2cc(Cl)cc(C(=O)NCc3ccc4c(N)nccc4c3)c2)CC1 [Example 29.10]
	3 to 10	Nc1nccc2cc(CNC(=O)c3cc(Cl)cc(CN4CCN(CC5CCCC5)CC4)c3)ccc12 [Example 29.11, N-((1-aminoisoquinolin-6-yl)methyl)-3-chloro-5-((4-(cyclopentylmethyl)piperazin-1-yl)methyl)benzamide]
	3 to 10	C[C@@H]1CCC[C@H](C)N1CC(=O)Nc1cc(Cl)cc(C(=O)NCc2ccc3c(N)nccc3c2)c1 [Example 32.05]
	10 to 40	COc1ccc(-n2cc(C(F)F)nn2)c(CNC(=O)c2nccnc2NCC2CCN(C)CC2)c1F [Example 33.22]
	10 to 40	Cc1cc(CN)cc(C)c1CNC(=O)c1nccnc1NCC1CCN(C)CC1 [Example 33.23]

SMILES	IC50 (Human FXIa) [µM]	IC50 (Human Factor XIIa) [µM]
Nc1nccc2cc(CNC(=O)c3cc(Cl)cnc3NCC34CCN(CC3)CC4)ccc12 [Example 1.52]	> 40	0.3 to 1
